# From US20160362416A1, “ANTIVIRAL COMPOUNDS” (Gilead Sciences, Inc., priority 2012, published 2016)
# System: Q30R in genotype 1a NS5A replicon
# Experiment: Resistance mutant replicon assay, genotype 1a NS5A Q30R
# Format: cell-based, HCV
# Conditions: Hepatitis C virus, read-out: 1a Q30R (nM)
# Protocol: Evaluation of cell-based anti-HCV activity: Antiviral potency (EC50) was determined using a Renilla luciferase (RLuc)-based HCV replicon reporter assay. To perform the assay for genotype 1 and 2a JFH-1, stable HCV 1a RLuc replicon cells (harboring a dicistronic genotype 1a H77 replicon that encodes a RLuc reporter), stable HCV lb RLuc replicon cells (harboring a dicistronic genotype 1b Conl replicon that encodes a RLuc reporter), or stable HCV 2a JFH-1 Rluc replicon cells (harboring a dicistronic genotype 2a JFH-1 replicon that encodes a RLuc reporter; with L31 present in NS5A) were dispensed into 384-well plates for EC50 assays. To perform the assay for genotype 2a (with M31 present in NS5A) or 2b, NS5A chimeric genotype 2a JFH-1 replicons that encodes a RLuc-Neo reporter and either genotype 2a J6 strain NS5A gene or genotype 2b MD2b-1 strain NS5A gene (both with M31 present) respectively, were either transiently transfected (t) into Huh-Lunet cells or were established as stably replicating replicon cells (s) is provided. Either cells were dispensed into 384-well plates for EC50 assays. To perform the assay for genotype 3 and 4, NS5A chimeric genotype 1b Conl replicons that encodes a Pi-RLuc reporter and either genotype 3a S52 strain NS5A gene or genotype 4a ED43 strain NS5A gene respectively, were transiently transfected (t) into Huh-Lunet cells, which were subsequently dispensed into 384-well plates. Compounds were dissolved in DMSO at a concentration of 10 mM and diluted in DMSO either manually or using an automated pipeting instrument. Serially 3-fold diluted compounds were either manually mixed with cell culture media and added to the seeded cells or directly added to the cells using an automated instrument. DMSO was used as a negative (solvent; no inhibition) control, and the protease inhibitor ITMN-191 was included at a concentration >100×EC50 as a positive control. 72 hours later, cells were lysed and Renilla luciferase activity quantified as recommended by the manufacturer (Promega-Madison, Wis.). Non-linear regression was performed to calculate EC50 values.
# To determine the antiviral potency (EC50) against resistance mutants, resistance mutations, including M28T, Q30R, Q30H, Q30E, L31M, Y93C, Y93H, and Y93N in genotype 1a NS5A, Y93H and L31V/Y93H in genotype 1b NS5A, and Y93H for in genotype 3a NS5A, were introduced individually into either 1a Pi-Rluc or 1b Pi-Rluc replicons by site directed mutagenesis. Replicon RNA of each resistant mutant was transiently transfected into Huh-7-derived cured-51 cells and antiviral potency was determined on these transfected cells as described above.
structure (smiles),measurement,value
"CC[C@H](C)[C@H](NC(=O)OC)C(=O)N1[C@@H](C)CC[C@H]1c1nc2ccc3cc4c(cc3c2[nH]1)OCc1cc(-c2cnc([C@@H]3CC[C@H](C)N3C(=O)[C@@H](NC(=O)OC)C3CCOCC3)[nH]2)ccc1-4 [Comp 12, reference compound]",EC50,1.28 nM
